Data from PubChem BioAssay (NCI).
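All cell lines were grown in 96-well plates and treated with compound for 48 hours. GI50 is the concentration that inhibits growth by half. Definition used: TGI = concentration required for complete inhibition of growth.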

Tests used:
Experiment in all cases: growth of human tumour cells (NCI), 48 h
HS 578T breast = test system: HS 578T breast
HCT-15 colon = test system: HCT-15 colon
SF-295 CNS = test system: SF-295 CNS
UO-31 renal = test system: UO-31 renal
SF-539 CNS = test system: SF-539 CNS
OVCAR-4 ovarian = test system: OVCAR-4 ovarian
HCT-116 colon = test system: HCT-116 colon
NCI-H460 lung = test system: NCI-H460 lung
EKVX NSCLC = test system: EKVX NSCLC
MDA-MB-231 breast = test system: MDA-MB-231 breast
UACC-62 melanoma = test system: UACC-62 melanoma
HCC-2998 colon = test system: HCC-2998 colon
CAKI-1 renal = test system: CAKI-1 renal
NCI/ADR-RES ovarian = test system: NCI/ADR-RES ovarian
SK-MEL-28 melanoma = test system: SK-MEL-28 melanoma
SK-OV-3 ovarian = test system: SK-OV-3 ovarian
K-562 leukemia = test system: K-562 leukemia
UACC-257 melanoma = test system: UACC-257 melanoma
RXF 393 renal = test system: RXF 393 renal
NCI-H23 lung = test system: NCI-H23 lung
SK-MEL-2 melanoma = test system: SK-MEL-2 melanoma
RPMI-8226 leukemia = test system: RPMI-8226 leukemia
SW-620 colon = test system: SW-620 colon
SNB-19 CNS = test system: SNB-19 CNS
IGROV1 ovarian = test system: IGROV1 ovarian
ACHN renal = test system: ACHN renal
NCI-H226 lung = test system: NCI-H226 lung
NCI-H522 lung = test system: NCI-H522 lung
A549 NSCLC = test system: A549 NSCLC
SR leukemia = test system: SR leukemia
TK-10 renal = test system: TK-10 renal
SF-268 CNS = test system: SF-268 CNS
HOP-92 NSCLC = test system: HOP-92 NSCLC
MALME-3M melanoma = test system: MALME-3M melanoma
KM12 colon = test system: KM12 colon
PC-3 prostate = test system: PC-3 prostate
DU-145 prostate = test system: DU-145 prostate
MOLT-4 leukemia = test system: MOLT-4 leukemia
HL-60(TB) leukemia = test system: HL-60(TB) leukemia
M14 melanoma = test system: M14 melanoma
SNB-75 CNS = test system: SNB-75 CNS
T-47D breast = test system: T-47D breast
COLO 205 colon = test system: COLO 205 colon
LOX IMVI melanoma = test system: LOX IMVI melanoma
MCF7 breast = test system: MCF7 breast
A498 renal = test system: A498 renal
CCRF-CEM leukemia = test system: CCRF-CEM leukemia
SK-MEL-5 melanoma = test system: SK-MEL-5 melanoma
786-0 renal = test system: 786-0 renal
U251 CNS = test system: U251 CNS
HT29 colon = test system: HT29 colon
OVCAR-3 ovarian = test system: OVCAR-3 ovarian
SN12C renal = test system: SN12C renal
BT-549 breast = test system: BT-549 breast
OVCAR-8 ovarian = test system: OVCAR-8 ovarian
OVCAR-5 ovarian = test system: OVCAR-5 ovarian
HOP-62 NSCLC = test system: HOP-62 NSCLC
MDA-MB-435 = test system: MDA-MB-435

In the case of `COc1cccc(-n2ncc3c(N/N=C/c4cccc(F)c4)ncnc32)c1`, the GI50 (HS 578T breast) is reported as 6.02 µM, the TGI (HS 578T breast) is reported as 15.6 µM and the GI50 (HCT-15 colon) is reported as 14.9 µM. For the same compound, the TGI (HCT-15 colon) was greater than 25 µM, the GI50 (SF-295 CNS) was 8.19 µM and the TGI (SF-295 CNS) was greater than 17.6 µM. It also gave a GI50 (UO-31 renal) of 6.73 µM, a TGI (UO-31 renal) greater than 16.4 µM and a GI50 (SF-539 CNS) of 12.5 µM. The TGI (SF-539 CNS) was greater than 25 µM, the GI50 (OVCAR-4 ovarian) was 6.28 µM and the TGI (OVCAR-4 ovarian) was 13.5 µM. For the same compound, the GI50 (HCT-116 colon) was 5.76 µM, the TGI (HCT-116 colon) was 11.3 µM and the GI50 (NCI-H460 lung) was 6.05 µM. It also gave a TGI (NCI-H460 lung) of 12.8 µM, a GI50 (EKVX NSCLC) of 10.2 µM and a TGI (EKVX NSCLC) greater than 25 µM. It also gave a GI50 (MDA-MB-231 breast) of 5.78 µM, a TGI (MDA-MB-231 breast) of 15.6 µM and a GI50 (UACC-62 melanoma) of 11.1 µM. The TGI (UACC-62 melanoma) was greater than 25 µM, the GI50 (HCC-2998 colon) was 20.3 µM and the TGI (HCC-2998 colon) was greater than 25 µM. It also gave a GI50 (CAKI-1 renal) of 8.59 µM, a TGI (CAKI-1 renal) of 24.6 µM and a GI50 (NCI/ADR-RES ovarian) of 8.11 µM. For the same compound, the TGI (NCI/ADR-RES ovarian) was greater than 25 µM, the GI50 (SK-MEL-28 melanoma) was 8.64 µM and the TGI (SK-MEL-28 melanoma) was greater than 25 µM. It also gave a GI50 (SK-OV-3 ovarian) of 4.8 µM, a TGI (SK-OV-3 ovarian) of 9.14 µM and a GI50 (K-562 leukemia) greater than 25 µM. For the same compound, the TGI (K-562 leukemia) was greater than 25 µM, the GI50 (UACC-257 melanoma) was 16.4 µM and the TGI (UACC-257 melanoma) was greater than 25 µM. For the same compound, the GI50 (RXF 393 renal) was 5.57 µM, the TGI (RXF 393 renal) was 12.7 µM and the GI50 (NCI-H23 lung) was 11.3 µM. The TGI (NCI-H23 lung) was greater than 25 µM, the GI50 (SK-MEL-2 melanoma) was 12.3 µM and the TGI (SK-MEL-2 melanoma) was greater than 25 µM. For the same compound, the GI50 (RPMI-8226 leukemia) was greater than 25 µM, the TGI (RPMI-8226 leukemia) was greater than 25 µM and the GI50 (SW-620 colon) was 16.8 µM. The TGI (SW-620 colon) was greater than 25 µM, the GI50 (SNB-19 CNS) was 12.3 µM and the TGI (SNB-19 CNS) was greater than 25 µM. The GI50 (IGROV1 ovarian) was 13.9 µM, the TGI (IGROV1 ovarian) was greater than 25 µM and the GI50 (ACHN renal) was 7.54 µM. It also gave a TGI (ACHN renal) greater than 20.3 µM, a GI50 (NCI-H226 lung) of 9.16 µM and a TGI (NCI-H226 lung) of 24.5 µM. It also gave a GI50 (NCI-H522 lung) greater than 15.6 µM, a TGI (NCI-H522 lung) greater than 25 µM and a GI50 (A549 NSCLC) of 4.94 µM. It also gave a TGI (A549 NSCLC) of 10.6 µM, a GI50 (SR leukemia) of 13.6 µM and a TGI (SR leukemia) greater than 25 µM. For the same compound, the GI50 (TK-10 renal) was 6.93 µM, the TGI (TK-10 renal) was 18.9 µM and the GI50 (SF-268 CNS) was 8.46 µM. The TGI (SF-268 CNS) was greater than 22 µM, the GI50 (HOP-92 NSCLC) was 5.59 µM and the TGI (HOP-92 NSCLC) was 14.2 µM. For the same compound, the GI50 (MALME-3M melanoma) was 7.96 µM, the TGI (MALME-3M melanoma) was greater than 25 µM and the GI50 (KM12 colon) was 14.7 µM. For the same compound, the TGI (KM12 colon) was greater than 25 µM, the GI50 (PC-3 prostate) was 9.86 µM and the TGI (PC-3 prostate) was greater than 25 µM. The GI50 (DU-145 prostate) was 9.01 µM, the TGI (DU-145 prostate) was greater than 24.1 µM and the GI50 (MOLT-4 leukemia) was greater than 25 µM. The TGI (MOLT-4 leukemia) was greater than 25 µM, the GI50 (HL-60(TB) leukemia) was greater than 25 µM and the TGI (HL-60(TB) leukemia) was greater than 25 µM. It also gave a GI50 (M14 melanoma) of 11.3 µM, a TGI (M14 melanoma) greater than 25 µM and a GI50 (SNB-75 CNS) of 5.05 µM. For the same compound, the TGI (SNB-75 CNS) was 12.4 µM, the GI50 (T-47D breast) was 6.41 µM and the TGI (T-47D breast) was greater than 19.2 µM. The GI50 (COLO 205 colon) was 8.06 µM, the TGI (COLO 205 colon) was greater than 22 µM and the GI50 (LOX IMVI melanoma) was 9.44 µM. It also gave a TGI (LOX IMVI melanoma) greater than 25 µM, a GI50 (MCF7 breast) greater than 14.6 µM and a TGI (MCF7 breast) greater than 25 µM. It also gave a GI50 (A498 renal) of 5.13 µM, a TGI (A498 renal) of 11.2 µM and a GI50 (CCRF-CEM leukemia) greater than 25 µM. The TGI (CCRF-CEM leukemia) was greater than 25 µM, the GI50 (SK-MEL-5 melanoma) was 18.8 µM and the TGI (SK-MEL-5 melanoma) was greater than 25 µM. For the same compound, the GI50 (786-0 renal) was 7.31 µM, the TGI (786-0 renal) was 20.8 µM and the GI50 (U251 CNS) was 4.66 µM. It also gave a TGI (U251 CNS) of 9.04 µM, a GI50 (HT29 colon) of 12.9 µM and a TGI (HT29 colon) greater than 25 µM. For the same compound, the GI50 (OVCAR-3 ovarian) was 5.42 µM, the TGI (OVCAR-3 ovarian) was 10.1 µM and the GI50 (SN12C renal) was 6.74 µM. It also gave a TGI (SN12C renal) greater than 19.6 µM, a GI50 (BT-549 breast) of 19.5 µM and a TGI (BT-549 breast) greater than 25 µM. The GI50 (OVCAR-8 ovarian) was 7.16 µM, the TGI (OVCAR-8 ovarian) was 18 µM and the GI50 (OVCAR-5 ovarian) was greater than 23.2 µM. For the same compound, the TGI (OVCAR-5 ovarian) was greater than 25 µM, the GI50 (HOP-62 NSCLC) was 5.87 µM and the TGI (HOP-62 NSCLC) was 11.4 µM. The GI50 (MDA-MB-435) was 10.1 µM and the TGI (MDA-MB-435) was greater than 25 µM.
